Results on one compound are retold here after patent publication US20260356820A1, “Pyrrolidine and Imidazolidine Based DNA Polymerase Theta Inhibitors and Use Thereof” (Thomas Jefferson University, priority 2022, published 2026).

The structures appear in SMILES notation.

Test [1] deals with T1, human Polq polymerase domain (Homo sapiens, UniProt O75417).
T1 sequence (O75417 1792-2590): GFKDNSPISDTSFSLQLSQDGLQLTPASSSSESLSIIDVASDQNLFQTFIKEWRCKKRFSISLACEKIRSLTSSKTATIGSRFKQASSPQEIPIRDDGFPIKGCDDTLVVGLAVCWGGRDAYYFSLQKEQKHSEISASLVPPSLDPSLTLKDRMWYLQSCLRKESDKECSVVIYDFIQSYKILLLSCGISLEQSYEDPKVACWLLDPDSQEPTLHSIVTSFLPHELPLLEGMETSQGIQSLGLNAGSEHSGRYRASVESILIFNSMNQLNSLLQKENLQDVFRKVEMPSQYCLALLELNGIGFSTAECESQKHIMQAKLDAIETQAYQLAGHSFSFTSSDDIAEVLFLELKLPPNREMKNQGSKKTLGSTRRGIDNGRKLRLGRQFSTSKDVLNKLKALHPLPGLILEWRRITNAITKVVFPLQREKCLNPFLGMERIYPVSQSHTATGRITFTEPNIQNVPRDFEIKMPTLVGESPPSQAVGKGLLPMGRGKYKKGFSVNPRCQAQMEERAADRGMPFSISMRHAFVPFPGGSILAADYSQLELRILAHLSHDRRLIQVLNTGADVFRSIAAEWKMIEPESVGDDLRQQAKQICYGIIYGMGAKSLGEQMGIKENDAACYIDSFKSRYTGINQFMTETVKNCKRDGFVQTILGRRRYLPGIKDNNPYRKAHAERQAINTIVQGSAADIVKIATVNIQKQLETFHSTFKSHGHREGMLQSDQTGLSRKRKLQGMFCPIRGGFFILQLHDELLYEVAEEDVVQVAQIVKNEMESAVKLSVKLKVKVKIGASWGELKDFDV
Briefly: Cy5 fluorescence assay of Polq polymerase domain inhibition. The test is classed as biochemical.

Test [2] has as its system cell types harboring BRCA2 mutations (PE01, VC8, CAPAN-1; BRCA2-null HCT116 and DLD1). Put plainly: Synergy with PARP inhibitors, clonogenic survival of BRCA2-mutated/null cells. The format is cell-based. The following applies: olaparib as PARP inhibitor, Combenefit software analysis. From the text:
FIG. 3A depicts a representative scatter plot and synergy plot showing clongenic survival of HCT116 BRCA2-null cells treated with varying concentrations of olaparib with DMSO or various concentrations of Example 6. FIG. 3B depicts a representative scatter plot synergy plot showing clongenic survival of DLD1 BRCA2-null cells treated with varying concentrations of olaparib with DMSO or various concentrations of Example 6. FIG. 3C depicts a representative scatter plot synergy plot showing clongenic survival of PE01 cells treated with varying concentrations of olaparib with DMSO or various concentrations of Example 6. FIG. 3D depicts a representative scatter plot synergy plot showing clongenic survival of VC8 cells treated with varying concentrations of olaparib with DMSO or various concentrations of Example 6. FIG. 3E depicts a representative scatter plot synergy plot showing clongenic survival of CAPAN-1 cells treated with varying concentrations of olaparib with DMSO or various concentrations of Example 6. FIG. 3F depicts a representative scatter plot showing clongenic survival of MDA-MB-231 cells following treatment with various concentrations of talazoparib and DMSO or various concentrations of Example 6 and representative images of colony plates. For FIG. 3A through FIG. 3F, data are presented as mean±SEM; n=3; p-values calculated by two-sample t test. […]

One may read the IC50 as the concentration needed to halve the response being measured. Lower therefore signals greater potency in that assay. As for `CN(C(=O)Oc1c(N2CCN(CCO)C2=O)cc(C(F)(F)F)cc1C(F)(F)F)c1ccc(F)cc1` [Example 6, 2,4-bis(trifluoromethyl)-6-(3-(2-hydroxyethyl)-2-oxoimidazolidin-1-yl)phenyl (4-fluorophenyl)(methyl)carbamate], the IC50 in test [1] came to 3.2 nM. The “synergy with PARP inhibitors (clonogenic survival)” value in test [2] is recorded as “Synergy”.
